# Assay results published in patent US9242970B2 (ACTELION PHARMACEUTICALS LTD., priority 2010, dated 2016).
# Like-named read-outs stand apart in the source and are kept apart here.
# Assays:
# human orexin-2 receptor = human orexin-2 receptor (Homo sapiens (Human), UniProt O43614); assay: In vitro assay: intracellular calcium measurements (FLIPR), antagonistic activity; format: cell-based
# Experimental: (§1) In Vitro Assay: Intracellular Calcium Measurements:
# (§2) Chinese hamster ovary (CHO) cells expressing the human orexin-1 receptor and the human orexin-2 receptor, respectively, are grown in culture medium (Ham F-12 with L-Glutamine) containing 300 µg/ml G418, 100 U/ml penicillin, 100 µg/ml streptomycin and 10% heat inactivated fetal calf serum (FCS). The cells are seeded at 20,000 cells/well into 384-well black clear bottom sterile plates (Greiner). The seeded plates are incubated overnight at 37° C. in 5% CO2.
# (§3) Fluorescence is measured for each well at 1 second intervals, and the height of each fluorescence peak is compared to the height of the fluorescence peak induced by 3 nM orexin-A with vehicle in place of antagonist. […] Optimized conditions were achieved by adjustment of pipetting speed and cell splitting regime. The calculated IC50 values may fluctuate depending on the daily cellular assay performance. Fluctuations of this kind are known to those skilled in the art.
# human orexin-1 receptor = human orexin-1 receptor (Homo sapiens (Human), UniProt O43613); assay: as above; format: cell-based; conditions: CHO cells, 3 nM orexin-A, compound incubation 120 min; marked values are geometric means of n = 2-6; read-out: IC50 OX1
# Experimental: as §1, §2, §3
# [1] = CHO cells, 3 nM orexin-A, compound incubation 120 min, marked values are geometric means of n = 2-6, read-out: IC50 OX2
# human orexin-2 receptor, sequence (O43614 whole entry): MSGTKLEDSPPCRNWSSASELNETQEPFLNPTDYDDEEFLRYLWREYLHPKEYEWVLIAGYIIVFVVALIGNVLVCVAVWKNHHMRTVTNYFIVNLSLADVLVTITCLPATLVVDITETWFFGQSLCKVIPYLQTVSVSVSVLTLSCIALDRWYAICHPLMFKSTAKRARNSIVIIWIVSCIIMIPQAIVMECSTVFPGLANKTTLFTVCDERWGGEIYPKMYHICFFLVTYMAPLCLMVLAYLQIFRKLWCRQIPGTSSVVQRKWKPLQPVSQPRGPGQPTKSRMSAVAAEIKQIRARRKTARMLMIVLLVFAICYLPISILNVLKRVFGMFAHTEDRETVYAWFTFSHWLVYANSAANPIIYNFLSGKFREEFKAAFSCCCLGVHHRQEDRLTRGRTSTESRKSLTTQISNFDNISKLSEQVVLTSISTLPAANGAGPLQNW
# human orexin-1 receptor, sequence (O43613 whole entry): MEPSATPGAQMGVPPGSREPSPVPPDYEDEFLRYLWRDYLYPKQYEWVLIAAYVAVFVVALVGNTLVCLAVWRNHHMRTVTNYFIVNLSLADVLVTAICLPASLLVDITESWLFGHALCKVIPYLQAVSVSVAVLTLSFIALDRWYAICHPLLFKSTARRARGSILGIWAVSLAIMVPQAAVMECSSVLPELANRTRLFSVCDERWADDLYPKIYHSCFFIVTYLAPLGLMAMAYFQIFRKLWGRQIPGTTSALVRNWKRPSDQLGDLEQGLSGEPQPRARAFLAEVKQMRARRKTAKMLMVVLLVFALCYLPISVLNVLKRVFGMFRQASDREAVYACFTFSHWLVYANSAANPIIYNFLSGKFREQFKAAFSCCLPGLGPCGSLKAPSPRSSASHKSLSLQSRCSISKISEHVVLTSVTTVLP
IC50 (human orexin-2 receptor; [1]),IC50 (human orexin-1 receptor),Compound,IC50 (human orexin-2 receptor)
108 nM,740 nM,"COc1cccc(Cl)c1[C@@H]1C[C@H](Cl)C(=O)N1Cc1ccc(OC(F)(F)F)cc1 (racemic) [Example 306, rac-(3S*,5S*)-3-chloro-5-(2-chloro-6-methoxyphenyl)-1-(4-(trifluoromethoxy)benzyl)pyrrolidin-2-one]",–
887 nM,2220 nM,"COc1cccc(C)c1[C@@H]1C[C@@H](O)C(=O)N1Cc1ccc(OC(F)(F)F)cc1 (racemic) [Example 309, rac-(3R*,5S*)-3-hydroxy-5-(2-methoxy-6-methylphenyl)-1-(4-(trifluoromethoxy)benzyl)pyrrolidin-2-one]",–
826 nM,2200 nM,"COc1ccc2ccccc2c1[C@@H]1C[C@@H](O)C(=O)N1Cc1ccc(OC(F)(F)F)cc1 (racemic) [Example 312, rac-(3R*,5S*)-3-hydroxy-5-(2-methoxynaphthalen-1-yl)-1-(4-(trifluoromethoxy)benzyl)pyrrolidin-2-one]",–
1030 nM,1460 nM,"COc1c(F)ccc(F)c1[C@@H]1C[C@@H](O)C(=O)N1Cc1ccc(OC(F)(F)F)cc1 (racemic) [Example 313, rac-(3R*,5S*)-5-(3,6-difluoro-2-methoxyphenyl)-3-hydroxy-1-(4-(trifluoromethoxy)benzyl)pyrrolidin-2-one]",–
920 nM,1100 nM,"COc1ccc(Cl)c(OC)c1[C@@H]1C[C@@H](O)C(=O)N1Cc1ccc(OC(F)(F)F)cc1 (racemic) [Example 314, rac-(3R*,5S*)-5-(3-chloro-2,6-dimethoxyphenyl)-3-hydroxy-1-(4-(trifluoromethoxy)benzyl)pyrrolidin-2-one]",–
1040 nM,329 nM,"COc1ccc2ccccc2c1[C@@H]1C[C@H](Cl)C(=O)N1Cc1ccc(OC(F)(F)F)cc1 (racemic) [Example 316, rac-(3S*,5S*)-3-chloro-5-(2-methoxynaphthalen-1-yl)-1-(4-(trifluoromethoxy)benzyl)pyrrolidin-2-one]",–
444 nM,167 nM,"COc1ccc(Cl)c(OC)c1[C@@H]1C[C@H](Cl)C(=O)N1Cc1ccc(OC(F)(F)F)cc1 (racemic) [Example 318, rac-(3S*,5S*)-3-chloro-5-(3-chloro-2,6-dimethoxyphenyl)-1-(4-(trifluoromethoxy)benzyl)pyrrolidin-2-one]",–
1020 nM,971 nM,"COc1ccc(Cl)c(OC)c1[C@@H]1C[C@H](F)C(=O)N1Cc1ccc(OC(F)(F)F)cc1 (racemic) [Example 319, rac-(3S*,5S*)-5-(3-chloro-2,6-dimethoxyphenyl)-3-fluoro-1-(4-(trifluoromethoxy)benzyl)pyrrolidin-2-one]",–
1210 nM,968 nM,"COc1cccc(F)c1[C@@H]1C[C@@H](Cl)C(=O)N1Cc1ccc(OC(F)(F)F)cc1 (racemic) [Example 324, rac-(3R*,5S*)-3-chloro-5-(2-fluoro-6-methoxyphenyl)-1-(4-(trifluoromethoxy)benzyl)pyrrolidin-2-one]",–
126 nM,1520 nM,"COc1cccc(C)c1[C@@H]1C[C@H](Cl)C(=O)N1Cc1ccc(OC(F)(F)F)cc1 (racemic) [Example 326, rac-(3S*,5S*)-3-chloro-5-(2-methoxy-6-methylphenyl)-1-(4-(trifluoromethoxy)benzyl)pyrrolidin-2-one]",–
434 nM,1150 nM,"CCOc1c(F)cccc1[C@@H]1C[C@H](F)C(=O)N1Cc1ccc(OC(F)(F)F)cc1 (racemic) [Example 331, rac-(3S*,5S*)-5-(2-ethoxy-3-fluorophenyl)-3-fluoro-1-(4-(trifluoromethoxy)benzyl)pyrrolidin-2-one]",–
296 nM,1020 nM,"COc1ccc(F)c(OC)c1[C@@H]1C[C@H](F)C(=O)N1Cc1ccc(OC(F)(F)F)cc1 (racemic) [Example 332, rac-(3S*,5S*)-3-fluoro-5-(3-fluoro-2,6-dimethoxyphenyl)-1-(4-(trifluoromethoxy)benzyl)pyrrolidin-2-one]",–
184 nM,965 nM,"CCOc1cccc(F)c1[C@@H]1C[C@@H](Cl)C(=O)N1Cc1ccc(OC(F)(F)F)cc1 (racemic) [Example 333, rac-(3R*,5S*)-3-chloro-5-(2-ethoxy-6-fluorophenyl)-1-(4-(trifluoromethoxy)benzyl)pyrrolidin-2-one]",–
33 nM,2120 nM,"CCOc1cccc(F)c1[C@@H]1C[C@@H](O)C(=O)N1Cc1ccc(OC(F)(F)F)cc1 (racemic) [Example 334, rac-(3R*,5S*)-5-(2-ethoxy-6-fluorophenyl)-3-hydroxy-1-(4-(trifluoromethoxy)benzyl)pyrrolidin-2-one]",–
1360 nM,5350 nM,"CCOc1cc(F)ccc1[C@@H]1C[C@@H](O)C(=O)N1Cc1ccc(OC(F)(F)F)cc1 (racemic) [Example 335, rac-(3R*,5S*)-5-(2-ethoxy-4-fluorophenyl)-3-hydroxy-1-(4-(trifluoromethoxy)benzyl)pyrrolidin-2-one]",–
17 nM,981 nM,"CCOc1ccc(F)c(F)c1[C@@H]1C[C@H](F)C(=O)N1Cc1ccc(OC(F)(F)F)cc1 (racemic) [Example 340, rac-(3S*,5S*)-5-(6-ethoxy-2,3-difluorophenyl)-3-fluoro-1-(4-(trifluoromethoxy)benzyl)pyrrolidin-2-one]",–
8 nM,1110 nM,"CCOc1cccc(F)c1[C@@H]1C[C@H](F)C(=O)N1Cc1ccc(OC(F)(F)F)cc1 (racemic) [Example 342, rac-(3S*,5S*)-5-(2-ethoxy-6-fluorophenyl)-3-fluoro-1-(4-(trifluoromethoxy)benzyl)pyrrolidin-2-one]",–
15 nM,603 nM,"CCOc1cccc(F)c1[C@@H]1C[C@H](Cl)C(=O)N1Cc1ccc(OC(F)(F)F)cc1 (racemic) [Example 343, rac-(3S*,5S*)-3-chloro-5-(2-ethoxy-6-fluorophenyl)-1-(4-(trifluoromethoxy)benzyl)pyrrolidin-2-one]",–
4 nM,20 nM,"COc1cccc(OC)c1[C@@H]1C[C@@H](O)C(=O)N1Cc1ccc2oc3ccccc3c2c1 (racemic) [Example 357, rac-(3R*,5S*)-1-(dibenzo[b,d]furan-2-ylmethyl)-5-(2,6-dimethoxyphenyl)-3-hydroxypyrrolidin-2-one]",–
5 nM,2 nM,"COc1cccc(OC)c1[C@@H]1C[C@H](Cl)C(=O)N1Cc1ccc2oc3ccccc3c2c1 (racemic) [Example 369, rac-(3S*,5S*)-3-chloro-1-(dibenzo[b,d]furan-2-ylmethyl)-5-(2,6-dimethoxyphenyl)pyrrolidin-2-one]",–
53 nM,1710 nM,"CCOc1cccc(F)c1[C@@H]1C[C@@H](O)C(=O)N1Cc1ccc(OC(F)(F)F)c(F)c1 (racemic) [Example 428, rac-(3R*,5S*)-5-(2-ethoxy-6-fluorophenyl)-1-(3-fluoro-4-(trifluoromethoxy)benzyl)-3-hydroxypyrrolidin-2-one]",–
255 nM,1490 nM,"CCOc1cc(F)cc(F)c1[C@@H]1C[C@@H](O)C(=O)N1Cc1ccc(OC(F)(F)F)cc1 (racemic) [Example 431, rac-(3R*,5S*)-5-(2-ethoxy-4,6-difluorophenyl)-3-hydroxy-1-(4-(trifluoromethoxy)benzyl)pyrrolidin-2-one]",–
57 nM,3960 nM,"O=C1[C@H](O)C[C@@H](c2c(F)cccc2OCCF)N1Cc1ccc(OC(F)(F)F)cc1 (racemic) [Example 432, rac-(3R*,5S*)-5-(2-fluoro-6-(2-fluoroethoxy)phenyl)-3-hydroxy-1-(4-(trifluoromethoxy)benzyl)pyrrolidin-2-one]",–
3920 nM,1710 nM,"CCOc1cccc(F)c1[C@@H]1C[C@@H](O)C(=O)N1Cc1ccccc1OC(F)(F)F (racemic) [Example 433, rac-(3R*,5S*)-5-(2-ethoxy-6-fluorophenyl)-3-hydroxy-1-(2-(trifluoromethoxy)benzyl)pyrrolidin-2-one]",–
21 nM,655 nM,"CCOc1cccc(F)c1[C@@H]1C[C@H](F)C(=O)N1Cc1ccc(OC(F)(F)F)c(F)c1 (racemic) [Example 434, rac-(3S*,5S*)-5-(2-ethoxy-6-fluorophenyl)-3-fluoro-1-(3-fluoro-4-(trifluoromethoxy)benzyl)pyrrolidin-2-one]",–
30 nM,660 nM,"CCOc1cccc(F)c1[C@@H]1C[C@H](Cl)C(=O)N1Cc1ccc(OC(F)(F)F)c(F)c1 (racemic) [Example 435, rac-(3S*,5S*)-3-chloro-5-(2-ethoxy-6-fluorophenyl)-1-(3-fluoro-4-(trifluoromethoxy)benzyl)pyrrolidin-2-one]",–

Compound,IC50 (human orexin-2 receptor; [1]),IC50 (human orexin-1 receptor),IC50 (human orexin-2 receptor)
CCOc1cc(F)ccc1[C@@H]1C[C@@H](Cl)C(=O)N1Cc1ccc(OC(F)(F)F)cc1 (racemic) [Example 341],1630 nM,3340 nM,–
CCOc1cc(F)ccc1[C@@H]1C[C@H](Cl)C(=O)N1Cc1ccc(OC(F)(F)F)cc1 (racemic) [Example 345],–,745 nM,462 nM
"CCOc1cccc(Cl)c1[C@@H]1C[C@H](F)C(=O)N1Cc1ccc(OC(F)(F)F)cc1 (racemic) [Example 436, rac-(3S*,5S*)-5-(2-chloro-6-ethoxyphenyl)-3-fuoro-1-(4-(trifluoromethoxy)benzyl)pyrrolidin-2-one]",31 nM,965 nM,–
